pEC50, pIC50: −log10 of the molar value. “And” between values parts separate entries of the source, which are not always exact repeats. Identical values can stand only once. Like-named read-outs stand apart in the source and are kept apart here. Marks after values point to notes of the source that are not given here.
Key:
Assay in all cases: cell-based
TraR = biological target: T1, TraR (Agrobacterium tumefaciens, UniProt P33905); settings: for A. tumefaciens-TraR Activation [%]: 10 μM ligand; for A. tumefaciens-TraR Activation [%] / A. tumefaciens-TraR Inhibition [%] / inhibition at 10 µM: A. tumefaciens WCF47 (pCF372), normalized to OOHL; for A. tumefaciens-TraR Inhibition [%]: 10 μM synthetic ligand against 100 nM OOHL; for activation at 10 µM: read-out: A. tumefaciens-TraR Activation [%]; for inhibition at 10 µM: read-out: A. tumefaciens-TraR Inhibition [%], 10 μM synthetic ligand against 100 nM OOHL
T1 construct: These strains lack their AHL synthase (I) genes, but retain their native R genes; endogenous in cells; host or cells: A. tumefaciens WCF47 (Δ-traI) with PtraI-lacZ plasmid pCF372
Method: A. tumefaciens reporter gene assay protocols. […] An overnight culture of A. tumefaciens WCF47 (pCF372) was diluted to an OD600 of 0.1 in fresh AB minimal medium containing 400 μg/mL octopine and 50 μg/mL streptomycin. A 200 μL-portion of the diluted culture was added to each well of the multititer plate containing AHLs. Plates were grown at 28° C. for 18-20 h in a rotary shaking incubator (200 rpm). The cultures were then assayed for β-galactosidase activity following the Miller assay method. Briefly, 200 μL aliquots of bacteria from each of the wells were added to wells of a polystyrene 96-well plate and the OD600 of each well was recorded. Next, 50 μL aliquots from each well were transferred to a solvent resistant 96-well plate containing 200 μL Z buffer, 8 μL CHCl3 and 4 μL 0.1% aq. sodium dodecylsulfate (SDS). This suspension was mixed via repetitive pipetting, after which the CHCl3 was allowed to settle. A 100-μL aliquot from each well was transferred to a fresh polystyrene 96-well plate, and 20 μL of substrate, o-nitrophenyl-β-D-galactopyranoside (ONPG, 4 μg/mL in phosphate buffer), was added at time zero. After the development of appropriate yellow color (ca. 15-35 min), the reaction was terminated by the addition of 50 μL of 1 M Na2CO3. Absorbance at 420 nm and 550 nm was measured for each well using a plate reader, and Miller units were calculated according to standard methods.
(§1) Dose response reporter gene assays. […] IC50 and EC50 values were calculated using GraphPad Prism software (v. 4.0) using a sigmoidal curve fit.
A. tumefaciens reporter gene assay protocols. […] An overnight culture of A. tumefaciens WCF47 (pCF372) was diluted 1:10 with fresh AB minimal medium containing 400 μg/mL octopine and 50 μg/mL streptomycin. A 200 μL portion of the diluted culture was added to each well of the multititer plate containing AHLs. Plates were incubated at 28° C. for 18-24 h. The cultures were then assayed for β-galactosidase activity following the Miller assay method. Briefly, 200 μL aliquots of bacteria from each of the wells were added to wells of a 96-well multititer plate, and the OD600 of each well was recorded. Next, 50 μL aliquots from each well were transferred to a solvent resistant 96-well multititer plate containing 200 μL Z buffer, 8 μL CHCl3 and 4 μL 0.1% aq. SDS. This suspension was mixed via repetitive pipetting, after which the CHCl3 was allowed to settle. A 100 μL aliquot from each well was transferred to a fresh 96-well multititer plate, and 20 μL of substrate, o-nitrophenyl-β-D-galactopyranoside (ONPG, 4 μg/mL in phosphate buffer), was added at time zero. After the development of appropriate yellow color (ca. 20-30 min), the reaction was terminated by the addition of 50 μL of 1 M Na2CO3. Absorbances at 420 nm and 550 nm were measured for each well using a plate reader, and Miller units were calculated according to standard methods.
as §1

LasR [1] = biological target: T2, LasR (Pseudomonas aeruginosa, UniProt P25084); assay type: cell-based; settings: for E. coli-LasR Inhibition [%]: 5 μM synthetic ligand against 7.5 nM OdDHL; for E. coli-LasR Inhibition [%] / inhibition at 5 µM: E. coli DH5α (pJN105L pSC11), normalized to OdDHL; for inhibition at 5 µM: read-out: E. coli-LasR Inhibition [%], 5 μM synthetic ligand against 7.5 nM OdDHL
T2 construct: expressed in transfected cells; host or cells: E. coli DH5α (pJN105L pSC11), arabinose-induced
Method: (§2) E. coli LasR reporter gene assay protocols. […] An overnight culture of E. coli DH5a (pJN105L pSC11) grown at 37° C. was subculture by diluting 1/10 in fresh LB medium containing 100 μg/mL ampicillin and 15 μg/mL gentamicin and shaking at 37° C. until OD600=0.3. Arabinose (4 mg/mL) was then added to induce the LasR promoter and a 200 μL-portion of this culture was added to each well of the multititer plate containing AHLs. Plates were grown at 37° C. for 2 hours in a rotary shaking incubator (200 rpm; OD600=0.45). The cultures were then assayed for activity following the identical β-galactosidase assay protocols used in the A. tumefaciens reporter gene assays.
as §1
(§3) E. coli LasR reporter gene assay protocols. […] An overnight culture of E. coli DH5α (pJN105L pSC11) was diluted 1:10 with fresh LB medium containing 100 μg/mL ampicillin and 15 μg/mL gentamicin. This sub-culture was incubated at 37° C. until OD600=0.3 (4-6 h). Arabinose (4 mg/mL) was then added to induce the LasR promoter, and a 200 μL portion of this culture was added to each well of the multititer plate containing AHLs. Plates were incubated at 37° C. until OD600=0.45 (4-6 h). The cultures were then assayed for LasR activity following the identical β-galactosidase assay protocols used in the A. tumefaciens reporter gene assays (see above).
as §1

LasR [2] = biological target: T2, LasR; settings: for E. coli-LasR Activation [%]: 5 μM ligand; for E. coli-LasR Activation [%] / activation at 5 µM: E. coli DH5α (pJN105L pSC11), normalized to OdDHL; for activation at 5 µM: read-out: E. coli-LasR Activation [%], 5 μM ligand
Method: as §2, §1, §3, §1

LuxR [3] = biological target: T3, LuxR (Aliivibrio fischeri, UniProt P35327); assay type: cell-based, Vibrio fischeri; settings: for V. fischeri-LuxR Inhibition [%]: 5 μM synthetic ligand against 5 μM OHHL; for V. fischeri-LuxR Inhibition [%] / inhibition at 5 µM: V. fischeri ES114 (Δ-luxI), normalized to OHHL; for pIC50: LuxR IC50, determined against 5 μM OHHL; for inhibition at 5 µM: read-out: V. fischeri-LuxR Inhibition [%], 5 μM synthetic ligand against 5 μM OHHL
T3 construct: a Δ-luxI derivative of V. fischeri ES114, in which the native lux operon behaves as the bioluminescent reporter; endogenous in cells; host or cells: V. fischeri ES114 (Δ-luxI)
Method: (§4) Luminescence assays. For agonism assays, an appropriate amount of AHL stock solution was added into a 96-well plate. An overnight culture of E. coli or V. fischeri was diluted 1:10 with appropriate media (LB plus 10 μg/mL tetracycline for E. coli; LBS for V. fischeri). A 200-μL portion of the diluted culture was added to each well of the plate. Plates were grown for 4-8 h with shaking (200 rpm; 30° C. for E. coli and RT for V. fischeri). Luminescence was measured using a multilabel plate reader and normalized to cell density. […] All assays were performed in triplicate. Graphpad Prism software was used to calculate IC50 and EC50 values.
(§5) Vibrio fischeri assay procedures. […] An overnight culture of V. fischeri ES114 (WT, Δ-luxI or Δ-luxR) was diluted 1:10 with LBS medium. A-200 μL portion of the diluted culture was added to each well of the plate. Plates were grown at RT with shaking (200 rpm) until the OD600=0.35-0.4 (4-6 h). Luminescence then was measured and normalized to cell density per well. […] All assays were performed in triplicate. IC50 and EC50 values were calculated using GraphPad Prism software using a sigmoidal curve fit.
(§6) V. fischeri reporter gene assay protocols. […] An overnight culture of V. fischeri ES114 (D-luxI) was diluted 1:10 with LBS medium. A 200-μL portion of the diluted culture was added to each well of the multititer plate. Plates were grown at RT with shaking (200 rpm) until the OD600=0.35-0.4 (4-6 h). Luminescence then was measured and normalized to cell density per well.
as §1
as §6, with “(Δ-luxI)” for “(D-luxI)”, “A200 μL” for “A 200-μL”, “incubated” for “grown”, “RT” for “RT with shaking (200 rpm)”
as §1

LuxR [4] = biological target: T3, LuxR; set-up: species or system Vibrio fischeri; settings: for V. fischeri-LuxR Activation [%]: 200 μM ligand; for V. fischeri-LuxR Activation [%] / activation at 200 µM: V. fischeri ES114 (Δ-luxI), normalized to OHHL; for activation at 200 µM: read-out: V. fischeri-LuxR Activation [%], 200 μM ligand
Method: as §4, §5, §6, §1
as §6, with “(Δ-luxI)” for “(D-luxI)”, “A200 μL” for “A 200-μL”, “incubated” for “grown”, “RT” for “RT with shaking (200 rpm)”
as §1

[5] = determined against 100 nM OOHL, read-out: TraR IC50

T2 sequence (P25084 whole entry): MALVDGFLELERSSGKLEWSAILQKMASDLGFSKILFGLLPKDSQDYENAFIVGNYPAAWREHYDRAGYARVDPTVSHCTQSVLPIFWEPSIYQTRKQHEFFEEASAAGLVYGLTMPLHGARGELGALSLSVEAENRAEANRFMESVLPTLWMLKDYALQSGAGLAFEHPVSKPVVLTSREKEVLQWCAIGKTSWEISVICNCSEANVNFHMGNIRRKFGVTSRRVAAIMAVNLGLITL
T3 sequence (P35327 whole entry): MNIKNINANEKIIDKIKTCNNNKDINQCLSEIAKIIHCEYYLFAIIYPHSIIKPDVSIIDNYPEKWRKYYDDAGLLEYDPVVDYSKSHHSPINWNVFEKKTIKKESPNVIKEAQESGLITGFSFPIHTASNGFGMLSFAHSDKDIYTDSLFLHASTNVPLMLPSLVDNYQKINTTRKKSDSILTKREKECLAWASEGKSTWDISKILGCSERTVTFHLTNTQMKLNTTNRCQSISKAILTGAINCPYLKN
T1 sequence (P33905 whole entry): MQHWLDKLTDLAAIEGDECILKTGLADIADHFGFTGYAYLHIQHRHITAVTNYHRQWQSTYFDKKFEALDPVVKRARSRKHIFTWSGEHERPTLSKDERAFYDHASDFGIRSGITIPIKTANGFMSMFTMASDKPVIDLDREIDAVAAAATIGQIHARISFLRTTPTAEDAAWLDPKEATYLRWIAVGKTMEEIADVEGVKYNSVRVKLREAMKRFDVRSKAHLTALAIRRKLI

Row | Molecule | A. tumefaciens-TraR Activation [%] (TraR) | A. tumefaciens-TraR Inhibition [%] (TraR) | E. coli-LasR Inhibition [%] (LasR [1]) | E. coli-LasR Activation [%] (LasR [2]) | V. fischeri-LuxR Inhibition [%] (LuxR [3]) | V. fischeri-LuxR Activation [%] (LuxR [4]) | also measured
1 | 4-N-tertbutoxycarbonyl-PHL [B25] | 0% | 11% | 10% | 27% | 33% | 2% | pEC50 (LasR [2]; read-out: LasR EC50): < 3.70
2 | D-enantiomer of OOHL [A24] | 4% | 6% | 16% | 0% | 7% | 2% | 
3 | CCCCCCCCCC(=O)NC1CCOC1=O (stereo not drawn) [A4, C10 AHL] |  |  |  |  |  |  | pIC50 (TraR): 5.98; activation at 10 µM (TraR): 2%; inhibition at 10 µM (TraR): 92%; pIC50 (LasR [1]): 6.60; LasR: concentration at which the compound elicits its maximal inhibition (value in parentheses) (LasR [1]; against 7.5 nM OdDHL, dose response curve did not reach 100% inhibition): (2.0)^f μM; inhibition at 5 µM (LasR [1]): 34%; pEC50 (LasR [2]): < 3.70; activation at 5 µM (LasR [2]): ≤ 44%; pIC50 (LuxR [3]): 6.05 and 6.40; inhibition at 5 µM (LuxR [3]): 96%; activation at 200 µM (LuxR [4]): 1%
4 | 4-amino PHL [B26] | 0% | 5% | 8% | 0% | 12% | 3% | 
5 | N-(phenylbutanoyl)-L-homoserine lactone [compound 6, reference compound] | 2% | 93% | ~25% and ~20% | 3% | 70% | 3% | pIC50 (TraR; [5]): 5.95
6 | 4-hydroxy PHL [B27] | 0% | 3% | 7% | 0% | 12% | 2% | 
7 | COc1ccc(CC(=O)N[C@H]2CCOC2=O)cc1 [C24] |  |  |  |  |  |  | Activation (%) (TraR; A. tumefaciens-TraR, Library C primary agonism screen): 0%; Inhibition (%) (TraR; A. tumefaciens-TraR, Library C primary antagonism screen): 26%; Inhibition (%) (LasR [1]; E. coli-LasR, Library C primary antagonism screen): 16%; Activation (%) (LasR [2]; E. coli-LasR, Library C primary agonism screen): 0%; Inhibition (%) (LuxR [3]; V. fischeri-LuxR, Library C primary antagonism screen): 57%; Activation (%) (LuxR [4]; V. fischeri-LuxR, Library C primary agonism screen): 3%
8 | CCCCCCCC(=O)N[C@H]1CCOC1=O [A3, C8 AHL] |  |  | 43% |  |  |  | pIC50 (TraR; [5]): 6.11; activation at 10 µM (TraR): 7%; inhibition at 10 µM (TraR): 83%; pIC50 (LasR [1]; determined against 7.5 nM OdDHL, read-out: LasR IC50): 5.76; inhibition at 5 µM (LasR [1]): ≥ 50%; activation at 5 µM (LasR [2]): 1%; pIC50 (LuxR [3]): 6.11; inhibition at 5 µM (LuxR [3]): 86%; activation at 200 µM (LuxR [4]): 12%
9 | CCCCCCCCCCCCCCCC(=O)N[C@H]1CCOC1=O [A6] | 0% | 0% | 5% | 11% | 27% | 2% | 
10 | 2-aminophenol analog of OdDHL [compound 7, reference compound] | 0% | 9% | 4% | 18% | 3% | 1% | 
11 | CCCCCCCCCCCC(=O)N[C@H]1CCOC1=O [A5, C12 AHL] |  |  |  |  |  |  | activation at 10 µM (TraR): 1%; inhibition at 10 µM (TraR): 22%; inhibition at 5 µM (LasR [1]): -10%; activation at 5 µM (LasR [2]): ~85%; pEC50 (LasR [2]; read-out: LasR EC50): 7.40; inhibition at 5 µM (LuxR [3]): 73%; activation at 200 µM (LuxR [4]): 2%
12 | O=C(NC1CCOC1=O)c1ccc(N=Nc2ccccc2)cc1 (stereo not drawn) [D20] | 0% | 4% | 12% | 0% | 46% | 2% | 
13 | COc1ccc(CC(=O)N[C@H]2CCOC2=O)cc1 [B28] | 0% | 26% | 16% | 0% | 57% | 3% | 
